Columns and labels:
Assay type in all cases: in vitro ADME
[1] = fu,cell by equilibrium dialysis of cell homogenate, HEK293; details: human, dialysis 4 h 37°C, 10 million cells/mL homogenate, read-out: fu,HEK293 Geomean
Method: (§1) fu,cell was measured in cassette-mode as previously described with minor modifications ([9]). Briefly, 10 million cells/mL were suspended in HBSS buffered with 10 mM HEPES and homogenized on ice by sonication (VCX 750 Sonicator, 3 mm probe, 20% intensity, 10 s). Up to 8 compounds were combined randomly and spiked into the homogenate for a final concentration of 0.5 μM. Equilibrium dialysis was performed in a Rapid Equilibirum device (Thermo Fisher Scientific) against blank HBSS buffered with 10 mM HEPES, for 4 h at 37°C on an orbital shaker at 900 rpm. Stability controls were kept at 4° and 37°C for the duration of the experiment. The concentration in both dialysis chambers was quantified by extracting the compound with acetonitrile/water (60/40) containing internal standard. Matrixes were matched with blank buffer or cell homogenate, respectively. LC-MS/MS parameters are available in Table S9. All experiments were carried out in triplicates and at least at two independent occasions.
(§2) The unbound fraction in the cell homogenate (fu,hom) was determined according to Eq. (1):1 fu,hom=Cbuffer/Chom and the fraction of unbound compound in the cell (fu,cell) was calculated by correcting for homogenate dilution according to Eq. (2):2 fu,cell=1/DP∙1/fu,hom−1+1 where the dilution constant DP was calculated using Eq. (3), assuming the Vcell to be equal to 6.5 μL/mg protein ([6],[10]). Protein content in the cell homogenates was determined at each experiment using the BCA Protein Assay Reagent Kit (Thermo Fisher Scientific Inc.).3 DP=1/Vcell

[2] = fu,cell by equilibrium dialysis of cell homogenate, HL60; details: human, dialysis 4 h 37°C, 10 million cells/mL homogenate, read-out: fu,HL60 Geomean
Method: as §1, §2

[3] = fu,cell by equilibrium dialysis of cell homogenate, Caco-2; details: human, Caco-2 cell homogenate, dialysis 4 h 37°C, 10 million cells/mL homogenate, read-out: fu,Caco-2 Geomean
Method: as §1
(§3) (3), assuming the Vcell to be equal to 6.5 μL/mg protein ([6],[10]). Protein content in the cell homogenates was determined at each experiment using the BCA Protein Assay Reagent Kit (Thermo Fisher Scientific Inc.).3 DP=1/Vcell

[4] = fu,cell by equilibrium dialysis of cell homogenate, LLC-PK1; details: pig, dialysis 4 h 37°C, 10 million cells/mL homogenate, read-out: fu,LLCPK1 Geomean
Method: as §1, §2

[5] = fu,cell by equilibrium dialysis of cell homogenate, A549; details: human, dialysis 4 h 37°C, 10 million cells/mL homogenate, read-out: fu,A549 Geomean
Method: as §1, §2

[6] = fu,cell by equilibrium dialysis of cell homogenate, K562; details: human, dialysis 4 h 37°C, 10 million cells/mL homogenate, read-out: fu,K562 Geomean
Method: as §1, §2

[7] = fu,cell by equilibrium dialysis of cell homogenate, MDCK; details: dog, dialysis 4 h 37°C, 10 million cells/mL homogenate, read-out: fu,MDCK Geomean
Method: as §1, §3

[8] = fu,cell by equilibrium dialysis of cell homogenate, primary human hepatocytes; details: primary human hepatocyte homogenate, dialysis 4 h 37°C, 10 million cells/mL homogenate, read-out: fu,HH Geomean
Method: as §1, §2

[9] = fu,PL from membrane affinity to PL-covered silica beads, PC; details: silica beads covered with phosphatidylcholine (PC), Transil; beads coated with pure PC, 15 min incubation; read-out: fu,PC Geomean
Method: (§4) f u,PL was derived from membrane affinity measurements to beads covered with PLs as previously described ([6]).
(§5) Cbuffer was quantified by LC-MS/MS in samples of the supernatant that was obtained after 15 min incubation time on an orbital shaker at 1000 rpm and subsequent separation from the beads by centrifugation at 750 x g. […] Unspecific binding was evaluated by incubations into wells without added lipids.

[10] = fu,PL from membrane affinity to PL-covered silica beads, PS; details: silica beads covered with phosphatidylserine (PS), Transil; beads coated with pure PS, 15 min incubation; read-out: fu,PS Geomean
Method: as §4, §5

[11] = fu,PL from membrane affinity to PL-covered silica beads, PE; details: beads coated with pure PE, 15 min incubation; read-out: fu,PE Geomean
Method: as §4, §5

[12] = fu,PL from membrane affinity to PL-covered silica beads, mixed beads; details: for fraction unbound at 15 min: mixed beads PC:PE:PS:PI 52:22:12:14 mol%, 15 min incubation, read-out: fu,mixed bead Geomean; for fu,PL (in words): examples of Fig. 3c, individual PL beads and mixed beads
Method: as §4, §5

Compound | fraction unbound at 4 h, 0.5 μM [1] | fraction unbound at 4 h, 0.5 μM [2] | fraction unbound at 4 h, 0.5 μM [3] | fraction unbound at 4 h, 0.5 μM [4] | fraction unbound at 4 h, 0.5 μM [5] | fraction unbound at 4 h, 0.5 μM [6] | fraction unbound at 4 h, 0.5 μM [7] | fraction unbound at 4 h, 0.5 μM [8] | fraction unbound at 15 min [9] | fraction unbound at 15 min [10] | fraction unbound at 15 min [11] | fraction unbound at 15 min [12] | fu,PL (in words) [12]
COc1ccccc1Oc1c(NS(=O)(=O)c2ccc(C(C)(C)C)cc2)nc(-c2ncccn2)nc1OCCO [Bosentan] | 0.0634 | 0.0579 | 0.0335 | 0.0538 | 0.0519 | 0.0856 | 0.036 | 0.0337 | 0.002 | 0.0014 | 0.0019 | 0.004 | –
Cn1c(=O)c2c(ncn2C)n(C)c1=O [Caffeine] | 0.248 | – | – | 0.115 | 0.0398 | 0.214 | 0.0593 | 0.248 | 0.0096 | 0.0025 | 0.0154 | 0.0145 | –
CCOc1nc2cccc(C(=O)O)c2n1Cc1ccc(-c2ccccc2-c2nnn[nH]2)cc1 [Candesartan] | 0.246 | 0.205 | 0.0945 | 0.118 | 0.103 | 0.948 | 0.0968 | 0.247 | 0.0174 | 0.0018 | 0.0055 | 0.0081 | –
CCN(CC)CCCC(C)Nc1ccnc2cc(Cl)ccc12 (stereo not shown) [Chloroquine] | 0.0824 | – | 0.0777 | 0.0783 | 0.0793 | 0.356 | 0.176 | 0.0824 | 0.0014 | 0.0006 | 0.0032 | 0.0044 | –
CCCNC(=O)NS(=O)(=O)c1ccc(Cl)cc1 [Chlorpropamide] | 0.571 | 0.54 | 0.654 | 0.6 | 0.376 | 0.638 | 0.349 | 0.944 | 0.0534 | 0.0089 | 0.0109 | 0.0343 | high
COc1ccc([C@@H]2Sc3ccccc3N(CCN(C)C)C(=O)[C@@H]2OC(C)=O)cc1 [Diltiazem] | 0.0637 | 0.206 | 0.1 | 0.0588 | 0.0287 | 0.119 | 0.069 | 0.0445 | 0.0023 | 0.0016 | 0.0083 | 0.0034 | –
COC(=O)CCc1ccc(OCC(O)CNC(C)C)cc1 (stereo not shown) [Esmolol] | 0.196 | 0.676 | 0.566 | 0.566 | 0.922 | 1 | 0.35 | – | 0.008 | 0.0019 | 0.0126 | 0.0084 | intermediate
OC(Cn1cncn1)(Cn1cncn1)c1ccc(F)cc1F [Fluconazole] | 0.1 | 0.646 | 0.456 | 0.159 | 0.159 | 1 | 0.229 | 0.737 | 0.0428 | 0.0045 | 0.0081 | 0.028 | –
CC(C)n1c(/C=C/C(O)CC(O)CC(=O)O)c(-c2ccc(F)cc2)c2ccccc21 (stereo not shown) [Fluvastatin] | 0.0403 | 0.0569 | 0.0245 | 0.0389 | 0.0161 | 0.0838 | 0.0338 | – | 0.001 | 0.0034 | 0.0067 | 0.002 | –
Cc1cccc(C)c1OCC(=O)N[C@@H](Cc1ccccc1)[C@@H](O)C[C@H](Cc1ccccc1)NC(=O)[C@H](C(C)C)N1CCCNC1=O [Lopinavir] | 0.0155 | 0.0168 | 0.0122 | 0.0047 | 0.0056 | 0.0234 | 0.0119 | 0.0044 | 0.0007 | 0.0011 | 0.0026 | 0.0011 | low
CC[C@H](C)C(=O)O[C@H]1C[C@@H](C)C=C2C=C[C@H](C)[C@H](CC[C@@H]3C[C@@H](O)CC(=O)O3)[C@H]21 [Lovastatin] | 0.0074 | 0.011 | 0.0024 | 0.002 | 0.0012 | 0.0055 | 0.0045 | 0.0013 | 0.0004 | 0.0002 | 0.0011 | 0.0002 | –
Cc1ccccc1N1C(=O)c2cc(S(N)(=O)=O)c(Cl)cc2NC1C (stereo not shown) [Metolazone] | 0.226 | 0.445 | 0.133 | 0.144 | 0.416 | 0.485 | 0.37 | 0.0709 | 0.0059 | 0.0093 | 0.0085 | 0.0069 | –
COCCc1ccc(OCC(O)CNC(C)C)cc1 (stereo not shown) [Metoprolol] | 0.0906 | 0.339 | 0.174 | 0.34 | 0.0881 | 1 | 0.202 | 0.374 | 0.0101 | 0.0081 | 0.0099 | 0.0148 | –
CCC(C)(C)C(=O)O[C@H]1C[C@@H](C)C=C2C=C[C@H](C)[C@H](CC[C@@H]3C[C@@H](O)CC(=O)O3)[C@H]21 [Simvastatin] | 0.0015 | 0.0023 | – | 0.0009 | 0.0002 | 0.0032 | – | – | 0.001 | 0.0001 | 0.0001 | 0.0001 | –
